System: COLO 205
Assay: NCI cancer cell line screen (sulforhodamin B)
Format: cell-based
Conditions: Homo sapiens; COLO 205, Colon; 48 h; read-out: log10 GI50 (converted)
Procedure: The new dual Aurora A/VEGF-R inhibitors 2e and 2n were selected by the National Cancer Institute for screening in its broad cancer cell line panel. The NCI in vitro assay is performed by incubation of cells with test compounds for 48 h and subsequent cell fixation with trichloroacetic acid. The pink dye sulforhodamin B is added, which binds to the proteins of the fixed cells. After washing and solubilizing the bound stain, the optical density is measured spectrophotometrically to determine the relative proliferation of treated and untreated cells.
Simultaneous inhibition of the Aurora A kinase and the VEGF-R2/3 receptor kinases may represent an interesting dual activity for the treatment of cancer. The National Cancer Institute selected the compounds 2e and 2n as representatives with particularly high inhibitory activity on the above kinases for testing in the IVCLS (in vitro cell line screening). In this screening, compounds are tested for antiproliferative activity on about 60 in vitro cultivated tumor cell lines. Based on this very broad screening on cell lines from nine tumor entities the general antiproliferative potency of compounds is determined. In addition, the bioinformatic tool COMPARE allowed one to draw conclusions on the molecular target of the compounds from the activity patterns on the different cell lines. Similar molecular mechanisms of action of two compounds are assumed if a Pearson correlation coefficient (PCC) of > 0.6 is calculated by COMPARE [52, 53]. […] The selectivity profile of the two compounds is not very pronounced given the overall very similar proliferation inhibition values across all cell lines. A COMPARE analysis determined a PCC = 0.61 for the patterns of test compounds 2e and 2n, which is consistent with an analogous mechanism of action. However, whether this mechanism is actually based on the inhibition of the inhibited Aurora kinases and VEGF receptor kinases cannot be deduced from these profiles.

`COc1ccc(Nc2nccc(-c3ccc4c(c3)CCCC(=O)N4)n2)cc1O` [Compound 2n, 7-[2-(3-Hydroxy-4-methoxyanilino)pyrimidin-4-yl]-1,3,4,5-tetrahydro-2H-1-benzazepin-2-one] showed a GI50 of 26.3 µM.

From paper PMC7998669, “7-(2-Anilinopyrimidin-4-yl)-1-benzazepin-2-ones Designed by a “Cut and Glue” Strategy Are Dual Aurora A/VEGF-R Kinase Inhibitors” (Molecules, 2021)
